Measured values as given in US6762052B1, “DNA sequence encoding flavin-containing monooxygenase” (priority 1993, dated 2004).
Read-outs that look alike come from different tables or passages of the source. Values belong to the molecule of their own block, whether it stands above or below them.

Key:
Human Liver Microsomes = assay: in vitro
Protocol: In all cases examined, product formation was directly determined by HPLC analysis of organic extracts.
Human liver samples were obtained from the Department of Surgery (UCSF) and with a protocol from the Medical College of Wisconsin (S. Wrighton).
A typical incubation mixture (final volume 0.25 ml) contained hepatic microsomes (0.4 mg of protein) or bacterial lysate (2.3 mg of protein), NADP^+ (0.5 mM), glucose-6-phosphate (2.0 mM), glucose-6-phosphate dehydrogenase (1 IU), DETAPAC (0.8 mM) and potassium phosphate buffer (50 mM, pH 8.4). Reactions were initiated by the addition of substrate and terminated at designated times by the addition of three volumes of cold dichloromethane, mixed thoroughly and centrifuged to separate the aqueous and organic fractions. N- and S-oxide metabolic products in the resulting organic extracts were separated and quantified by HPLC. […] Thiobenzamide and thiobenzamide S-oxide were quantified with this same, HPLC system employing a mobile phase of methanol/acetonitrile/60% perchloric acid (20:80:0.016, v/v) which gave retention volumes of 2.7 and 7.0 ml, respectively. […] The major metabolites formed in the incubations were also subjected to mass spectral analysis after extraction of isolated HPLC fractions.
RPLC of the S-oxide diastereomers with a Chiracel OT chiral analytical column (25 cm×0.15 cm inner diameter, Daicel Chemical Co., New York, N.Y.) was accomplished with a Beckman system, Kratos UV detector (240 nm) and a Hewlett Packard Integrator. […] Quantification was accomplished by comparing integrated HPLC peak areas after taking into account the difference in the extinction coefficients at 240 nm. Likewise, the cis and trans S-oxide diasteromers of (+)- and (−)-2-methyl-1,-benzodithiole were separated with a Chiracel OT chiral analytical column.

[1] = system: human FMO3-maltose binding protein (FMO3-MBP); assay: Sequential N-oxygenation of primary amines to oximes by cDNA-expressed human FMO3-MBP; assay type: in vitro ADME
Text: The cDNA-expressed human FMO3-maltose binding protein (FMO3-MBP) efficiently catalyzes the sequential N-oxygenation of primary amines to oximes through the intermediacy of hydroxylamines. […] In addition, formation was not dependent on autoxidation of hydroxylamines or generation of oxygen radical species. Thus, […] and O2^− had virtually no effect on the formation of oxime from the primary hydroxylamine. […] This represents a fundamental difference between FMO3 and other FMOs and indicates a use of FMO3 as a stereoselective catalyst in the formation of precious chemicals or hard to form metabolites having great stereochemical purity.

human FMO3 = human FMO3 (Homo sapiens, UniProt P31513); settings: in vitro; cited from earlier work
lys158-HFMO3-MBP = target: T1, lys158-HFMO3-MBP (Homo sapiens, UniProt P31513, E158K); assay: Substrate oxygenation by lys158-HFMO3-MBP fusion protein, HPLC
T1 sequence (P31513 2-532 E158K): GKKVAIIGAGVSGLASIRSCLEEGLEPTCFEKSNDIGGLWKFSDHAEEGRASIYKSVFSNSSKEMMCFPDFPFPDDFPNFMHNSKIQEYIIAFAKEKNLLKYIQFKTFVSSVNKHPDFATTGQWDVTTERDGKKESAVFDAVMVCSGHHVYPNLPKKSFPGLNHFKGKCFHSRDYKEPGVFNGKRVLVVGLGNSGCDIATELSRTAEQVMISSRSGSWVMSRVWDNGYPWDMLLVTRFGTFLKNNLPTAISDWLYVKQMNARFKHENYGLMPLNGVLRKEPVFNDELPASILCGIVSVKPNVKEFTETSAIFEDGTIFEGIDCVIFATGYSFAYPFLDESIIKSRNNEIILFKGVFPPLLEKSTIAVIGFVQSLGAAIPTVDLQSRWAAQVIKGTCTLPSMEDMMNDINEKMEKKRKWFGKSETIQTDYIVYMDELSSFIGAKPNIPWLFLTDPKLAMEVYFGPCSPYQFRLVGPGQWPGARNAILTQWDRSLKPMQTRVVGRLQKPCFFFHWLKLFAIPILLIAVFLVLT
Protocol: (§1) For HFMO3-MBP assay, all HFMO3-MBP incubations were done as follows: Into a test tube was added DETAPAC (1.2 mM, final concentration for a 250 μl reaction) followed by the addition of 60 μl NADPH generating system (0.4 mM NADP, 0.4 mM glucose-6-phosphate, and 20 μl of a 50 units mI^−1 glucose-6-phosphate dehydrogenase). The tube was chilled on ice and buffer and enzyme were added as described below for individual experiments to give a volume of 240 μl. The incubation was initiated by the addition of 5-DTP (10 μl of 5 mM) and placed in a shaking water bath at 37° C. for 10 min (unless specified otherwise). The incubation was stopped by the addition of 1.0 ml of ice-cold CH2Cl2. Following the addition of sodium carbonate (approx. 20 mg), the culture tube was vortexed, centrifuged (2000×g, 10 min), and the organic layer was removed and transferred to a 1.5 ml microfuge tube. The organic solvent was evaporated under a stream of Ar(g) to dryness and the residue was taken up in MeOH (300 μl) for determination HPLC analysis.
(§2) Data was analyzed with a Hitachi D-2500 integrator.
(§3) MTS-oxygenation assays were carried out under the same buffer, temperature, time and volume conditions, as for the N-oxygenation assays. The reactions were initiated upon addition of 10 μl of a 5 mM solution of MTS. The reaction was quenched with the addition of 700 μl of 80% CH3CN:20% hexane then 20 mg NaCl(s) and vortexed vigorously for 10 sec. The quenched reactions were then centrifuged briefly to separate the phases. The organic layer, containing product and substrate, was removed and used directly for HPLC analysis.
(§4) All other instruments used were the same as above for the N-oxygenation reactions. Conditions for elution were 50% CH3CN/H2O (v:v) with a flow rate gradient as follows: 1.5 ml min^−1 from 0 to 4 min., 1.5-2.5 ml min^−1 from 4 to 5 min, 2.5 ml min^−1 from 5 to 15 min.
Trimethylamine is commonly ingested in foodstuffs or it is available in the diet of humans from choline and other sources. Trimethylamine (TMA) is exclusively eliminated in humans by metabolism to trimethylamine N-oxide (TMANO). […] Thus, urinary TMANO formation provides a simple, reliable and direct assay of FMO3 activity in adult humans. Analysis of TMA to TMANO ratios provides a direct means of phenotyping adult humans for FMO3 activity. Phenotyping FMO3 activity in humans would provide a simple means of evaluating the relationship between the presence of FMO3 and various disease conditions. […]

glu158-HFMO3-MBP = target: T2, glu158-HFMO3-MBP (Homo sapiens, UniProt P31513); assay: Substrate oxygenation by glu158-HFMO3-MBP fusion protein, HPLC; settings: human, 15 min, 200 µM, pH 9
T2 sequence (P31513 2-532): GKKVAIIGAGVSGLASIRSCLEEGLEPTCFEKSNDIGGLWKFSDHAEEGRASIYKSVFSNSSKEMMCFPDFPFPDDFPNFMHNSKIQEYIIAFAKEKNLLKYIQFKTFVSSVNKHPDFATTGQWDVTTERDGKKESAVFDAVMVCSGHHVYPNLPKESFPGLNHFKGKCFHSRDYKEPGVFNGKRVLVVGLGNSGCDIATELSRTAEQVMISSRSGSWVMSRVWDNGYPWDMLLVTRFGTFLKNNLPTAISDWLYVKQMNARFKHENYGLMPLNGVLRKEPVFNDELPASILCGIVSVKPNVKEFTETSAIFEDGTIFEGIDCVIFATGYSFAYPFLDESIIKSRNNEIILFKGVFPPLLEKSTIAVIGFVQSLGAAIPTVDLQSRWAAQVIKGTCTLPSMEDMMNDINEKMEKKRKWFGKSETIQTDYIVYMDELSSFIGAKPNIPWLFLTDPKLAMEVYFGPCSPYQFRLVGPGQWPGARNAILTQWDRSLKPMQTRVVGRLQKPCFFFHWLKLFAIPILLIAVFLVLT
Protocol: as §1, §2, §3, §4
Trimethylamine is commonly ingested in foodstuffs or it is available in the diet of humans from choline and other sources. Trimethylamine (TMA) is exclusively eliminated in humans by metabolism to trimethylamine N-oxide (TMANO). […]

[2] = normal humans, dietary sources or otherwise; cited from earlier work
NM522 E. coli = assay: Bactericidal action / cytotoxicity in liquid culture; settings: 50 or 100 micrograms per mL
pig liver FMO form I = target: T3, pig liver FMO form I (Sus scrofa, UniProt P16549); settings: cited from earlier work
T3 sequence (P16549 1-532): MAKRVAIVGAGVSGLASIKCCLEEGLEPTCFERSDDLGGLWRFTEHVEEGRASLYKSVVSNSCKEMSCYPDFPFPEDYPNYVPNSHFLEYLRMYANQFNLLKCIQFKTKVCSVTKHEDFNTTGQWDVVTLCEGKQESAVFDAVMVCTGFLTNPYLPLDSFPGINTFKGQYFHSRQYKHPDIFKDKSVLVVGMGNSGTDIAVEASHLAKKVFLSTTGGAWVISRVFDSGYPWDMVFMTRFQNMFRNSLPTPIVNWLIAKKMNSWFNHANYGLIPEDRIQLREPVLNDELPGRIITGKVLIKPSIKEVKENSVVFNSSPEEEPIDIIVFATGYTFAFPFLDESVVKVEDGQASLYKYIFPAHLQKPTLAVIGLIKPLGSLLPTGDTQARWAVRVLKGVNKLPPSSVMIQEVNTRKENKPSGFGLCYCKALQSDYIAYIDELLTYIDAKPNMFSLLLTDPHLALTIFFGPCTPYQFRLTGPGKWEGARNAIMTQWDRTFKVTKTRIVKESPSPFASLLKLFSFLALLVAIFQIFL

not read = substrate: CN(C)C; assay: not read; settings: other: Lys 158 variant; evaporative light scattering HPLC detection; 37.0 °C
Protocol: This HPLC system efficiently resolved the 5-DTP substrate from the N-oxide product with retention times of 5.30 min and 4.30 min, respectively.
MTS-oxygenation assays were carried out under the same buffer, temperature, time and volume conditions, as for the N-oxygenation assays. The reactions were initiated upon addition of 10 μl of a 5 mM solution of MTS. […]

[3] = substrate: NC(=S)c1ccccc1; assay: cells, lysate or membranes named; settings: other: N- or S-oxide formation; for the 4-bromophenyl-1,3-oxathiolanes formation of the trans S-oxide; pH 8.4; 37.0 °C
Protocol: Competent NM522 Escherichia coli cells were transformed with the pTrc HLFMO 3 plasmid. […] After inoculation with a fresh overnight culture of NM522 containing pTrcHLFMO 3, the culture was grown at 37° C. until Abs600 was approximately 0.5 absorbance units. Finally, IPTG (0.8 mM) was added to the culture to induce expression of protein and the culture was left to grow overnight at 37° C.
The bacterial pellet was resuspended in 5 volumes of 50 mM potassium phosphate buffer (pH 8.4) containing 1% Triton X-100, 0.1% L-, α-phosphatidylcholine (L-α-lecithin) from egg yolk, 500 μM PMSF, and 1 mM EDTA. The mixture was sonicated and then centrifuged to remove cellular debris. […]

Sequence of human FMO3 (P31513 whole entry, the tested form may be a part): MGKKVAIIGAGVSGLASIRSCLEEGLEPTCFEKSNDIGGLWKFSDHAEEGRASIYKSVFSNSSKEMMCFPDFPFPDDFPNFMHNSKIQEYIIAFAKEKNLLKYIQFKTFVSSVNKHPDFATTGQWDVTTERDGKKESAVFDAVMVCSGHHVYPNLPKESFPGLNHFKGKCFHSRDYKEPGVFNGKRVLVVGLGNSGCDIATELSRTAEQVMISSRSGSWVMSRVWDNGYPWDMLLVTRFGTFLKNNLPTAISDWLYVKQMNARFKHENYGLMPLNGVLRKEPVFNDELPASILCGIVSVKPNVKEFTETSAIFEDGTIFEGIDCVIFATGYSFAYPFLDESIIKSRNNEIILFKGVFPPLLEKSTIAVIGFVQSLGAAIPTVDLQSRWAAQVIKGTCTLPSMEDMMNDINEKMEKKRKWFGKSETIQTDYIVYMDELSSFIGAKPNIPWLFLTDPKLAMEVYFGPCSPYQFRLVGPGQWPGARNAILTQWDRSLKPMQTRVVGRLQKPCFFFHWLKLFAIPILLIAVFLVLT

Molecule: CCCCCCCCNN1c2ccccc2Sc2ccc(C(F)(F)F)cc21 [10-(N-n-octylamino)-2-(trifluoromethyl)phenothiazine]
oxime formation from primary amine, product stereoselectivity (Human Liver Microsomes): stereoslectively converted to the cis oxime
oxime formation from primary amine, product stereoselectivity [1]: stereoselectively converted to the cis oxime

Molecule: CN1CCC[C@H]1c1cccnc1 [(S)-nicotine]
N-1'-oxide product stereoselectivity (human FMO3): exclusively converted to trans (S)-nicotine N-1′-oxide

relative activity towards the sulfide, MTS vs. 5-DTP activity (lys158-HFMO3-MBP; human, 15 min, 200 µM, pH 9): 4.9 fold
relative activity towards the sulfide, MTS vs. 5-DTP activity (glu158-HFMO3-MBP): 20 fold
Molecule: CSc1ccc(C)cc1 [MTS, methyl p-tolyl sulfide]

Molecule: CN(C)C [TMA, trimethylamine]
dose converted to TMANO that is excreted in the urine [2]: over 95%
Vmax of N-oxygenation to TMANO (lys158-HFMO3-MBP; Lys 158 variant): 3.8 nmol of TMANO formed/min/mg of protein

Molecule: C[N+]1([O-])CCN(c2cc3c(cc2F)c(=O)c(C(=O)O)cn3-c2ccc(F)cc2)CC1 [difloxacin terminal tertiary amine N-oxide]
cytotoxicity (NM522 E. coli): not significantly cytotoxic

Molecule: CN(C)CCCN1c2ccccc2CCc2ccccc21 [imipramine]
substrate activity, in words (pig liver FMO form I): excellent substrate

Molecule: NCCc1ccccc1 [phenethylamine]
oxime formation from primary amine, product stereoselectivity (Human Liver Microsomes; adult human liver microsomes, NADPH-dependent): stereoselectively converted to trans oximes
oxime formation from primary amine, product stereoselectivity ([1]; cDNA-expressed human FMO3-MBP): stereoselectively converted to trans oximes

B1: lys158-HFMO3-MBP (Homo sapiens; E158K) (protein)
chain: GKKVAIIGAGVSGLASIRSCLEEGLEPTCFEKSNDIGGLWKFSDHAEEGRASIYKSVFSNSSKEMMCFPDFPFPDDFPNFMHNSKIQEYIIAFAKEKNLLKYIQFKTFVSSVNKHPDFATTGQWDVTTERDGKKESAVFDAVMVCSGHHVYPNLPKKSFPGLNHFKGKCFHSRDYKEPGVFNGKRVLVVGLGNSGCDIATELSRTAEQVMISSRSGSWVMSRVWDNGYPWDMLLVTRFGTFLKNNLPTAISDWLYVKQMNARFKHENYGLMPLNGVLRKEPVFNDELPASILCGIVSVKPNVKEFTETSAIFEDGTIFEGIDCVIFATGYSFAYPFLDESIIKSRNNEIILFKGVFPPLLEKSTIAVIGFVQSLGAAIPTVDLQSRWAAQVIKGTCTLPSMEDMMNDINEKMEKKRKWFGKSETIQTDYIVYMDELSSFIGAKPNIPWLFLTDPKLAMEVYFGPCSPYQFRLVGPGQWPGARNAILTQWDRSLKPMQTRVVGRLQKPCFFFHWLKLFAIPILLIAVFLVLT
Km (not read): 634 µM

B2: adult human liver flavin-containing monooxygenase (form 3) (Homo sapiens; E158K) (protein)
chain: MGKKVAIIGAGVSGLASIRSCLEEGLEPTCFEKSNDIGGLWKFSDHAEEGRASIYKSVFSNSSKEMMCFPDFPFPDDFPNFMHNSKIQEYIIAFAKEKNLLKYIQFKTFVSSVNKHPDFATTGQWDVTTERDGKKESAVFDAVMVCSGHHVYPNLPKKSFPGLNHFKGKCFHSRDYKEPGVFNGKRVLVVGLGNSGCDIATELSRTAEQVMISSRSGSWVMSRVWDNGYPWDMLLVTRFGTFLKNNLPTAISDWLYVKQMNARFKHENYGLMPLNGVLRKEPVFNDELPASILCGIVSVKPNVKEFTETSAIFEDGTIFEGIDCVIFATGYSFAYPFLDESIIKSRNNEIILFKGVFPPLLEKSTIAVIGFVQSLGAAIPTVDLQSRWAAQVIKGTCTLPSMEDMMNDINEKMEKKRKWFGKSETIQTDYIVYMDELSSFIGAKPNIPWLFLTDPKLAMEVYFGPCSPYQFRLVGPGQWPGARNAILTQWDRSLKPMQTRVVGRLQKPCFFFHWLKLFAIPILLIAVFLVLT
Km [3]: 72.6 µM
Vmax [3]: 1.44 nmol/min/mg of protein
